In article PMC6272711, “5-Methoxyquinoline Derivatives as a New Class of EZH2 Inhibitors” (Molecules, 2015) one finds IC50 and H3K27me3 level data, which are given here for 1 compound.

“Also recorded” adds a separate entry of the source. Where two headings read alike, the source gives them in different places.

One experiment addresses T1, SETD8 (Homo sapiens, UniProt Q9NQR1).
T1 sequence (Q9NQR1 1-393): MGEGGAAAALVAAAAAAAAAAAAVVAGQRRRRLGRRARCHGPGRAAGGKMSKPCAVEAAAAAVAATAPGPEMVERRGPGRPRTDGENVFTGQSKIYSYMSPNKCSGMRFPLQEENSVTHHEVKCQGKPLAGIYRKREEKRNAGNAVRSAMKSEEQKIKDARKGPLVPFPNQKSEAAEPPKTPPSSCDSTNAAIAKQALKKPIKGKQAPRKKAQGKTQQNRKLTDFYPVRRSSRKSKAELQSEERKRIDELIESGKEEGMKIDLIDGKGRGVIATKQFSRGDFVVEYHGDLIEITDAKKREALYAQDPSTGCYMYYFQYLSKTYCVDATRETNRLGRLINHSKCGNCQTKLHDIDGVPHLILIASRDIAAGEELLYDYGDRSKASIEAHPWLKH
Kind of experiment: Enzyme selectivity assay, SETD8. The class given is biochemical. The settings on record: means of at least three measurements.

The target of a further experiment is T2, SUV39H1 (Homo sapiens, UniProt O43463).
T2 sequence (O43463 1-412): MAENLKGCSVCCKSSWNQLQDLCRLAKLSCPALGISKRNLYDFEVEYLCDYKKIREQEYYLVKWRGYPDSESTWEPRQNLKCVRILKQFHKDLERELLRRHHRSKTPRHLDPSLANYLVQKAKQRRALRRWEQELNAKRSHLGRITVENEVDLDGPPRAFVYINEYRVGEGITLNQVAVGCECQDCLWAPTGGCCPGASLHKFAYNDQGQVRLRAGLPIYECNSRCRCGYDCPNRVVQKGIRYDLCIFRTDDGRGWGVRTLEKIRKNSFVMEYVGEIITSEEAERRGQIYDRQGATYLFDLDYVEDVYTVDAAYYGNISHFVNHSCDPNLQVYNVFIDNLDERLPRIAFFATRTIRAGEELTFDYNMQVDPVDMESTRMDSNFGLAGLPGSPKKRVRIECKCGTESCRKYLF
In words: Enzyme selectivity assay, SUV39H1. It is filed as biochemical. As to conditions: means of at least three measurements.

Another experiment deals with HCT15. Kind of experiment: MTT cell growth inhibition, HCT15. The settings on record: means of at least three measurements. It is filed as cell-based, human.
The target of the next experiment is PRMT1 (Homo sapiens, UniProt Q99873). Kind of experiment: Enzyme selectivity assay, PRMT1. It is filed as biochemical. As to conditions: means of at least three measurements.
For the next experiment, the target named is T3, G9a (Homo sapiens, UniProt Q96KQ7).
T3 sequence (Q96KQ7 1-1210): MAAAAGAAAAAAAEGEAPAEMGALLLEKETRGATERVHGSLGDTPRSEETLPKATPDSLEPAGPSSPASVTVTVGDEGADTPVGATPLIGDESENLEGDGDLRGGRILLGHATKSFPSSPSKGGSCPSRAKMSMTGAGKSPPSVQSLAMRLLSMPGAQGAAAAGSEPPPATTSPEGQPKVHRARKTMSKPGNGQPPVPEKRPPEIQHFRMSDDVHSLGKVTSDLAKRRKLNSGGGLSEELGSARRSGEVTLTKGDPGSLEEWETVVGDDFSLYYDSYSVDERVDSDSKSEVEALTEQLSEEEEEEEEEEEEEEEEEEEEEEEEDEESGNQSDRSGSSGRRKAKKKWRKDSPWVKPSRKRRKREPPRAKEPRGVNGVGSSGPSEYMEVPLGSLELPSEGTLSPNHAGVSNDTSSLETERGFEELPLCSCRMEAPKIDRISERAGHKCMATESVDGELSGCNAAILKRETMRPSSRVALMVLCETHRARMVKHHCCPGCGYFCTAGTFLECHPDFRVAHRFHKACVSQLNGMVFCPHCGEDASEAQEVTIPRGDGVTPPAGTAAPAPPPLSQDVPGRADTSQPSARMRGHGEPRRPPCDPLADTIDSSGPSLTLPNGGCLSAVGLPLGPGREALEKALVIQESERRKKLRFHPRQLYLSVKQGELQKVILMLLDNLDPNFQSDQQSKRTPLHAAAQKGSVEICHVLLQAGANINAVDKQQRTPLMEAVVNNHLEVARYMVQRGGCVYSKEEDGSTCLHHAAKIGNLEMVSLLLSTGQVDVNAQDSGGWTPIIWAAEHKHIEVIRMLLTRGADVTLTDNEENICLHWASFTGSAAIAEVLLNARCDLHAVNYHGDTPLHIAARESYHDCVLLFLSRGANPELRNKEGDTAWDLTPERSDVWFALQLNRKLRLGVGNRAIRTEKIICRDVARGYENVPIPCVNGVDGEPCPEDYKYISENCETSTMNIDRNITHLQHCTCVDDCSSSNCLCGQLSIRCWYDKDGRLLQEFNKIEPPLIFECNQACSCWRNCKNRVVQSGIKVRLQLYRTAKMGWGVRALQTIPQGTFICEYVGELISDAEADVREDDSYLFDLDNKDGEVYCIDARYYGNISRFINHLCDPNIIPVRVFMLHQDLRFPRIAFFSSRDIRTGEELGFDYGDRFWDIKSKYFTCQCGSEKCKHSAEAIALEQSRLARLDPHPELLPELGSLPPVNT
In words: Enzyme selectivity assay, G9a. The class given is biochemical. As to conditions: means of at least three measurements.

In a further experiment the target is SETDB1 (Homo sapiens, UniProt Q15047). In words: Enzyme selectivity assay, SETDB1. It is filed as biochemical. As to conditions: means of at least three measurements.
Experiment [1] has as its system H3K27me3 level in MDA-MB-231 cell line. Kind of experiment: Western blotting assay of H3K27me3 status. It is filed as cell-based, human. The settings on record: MDA-MB-231 cells, treatment for 72 h, western blot, total H3 loading control. How it is done: The main catalytic activity of EZH2 is methylating histone 3 lysine 27 (H3K27), so evaluation of H3K27me3 was conducted through a western blotting assay.
Figure 3 Analysis of H3K27 methylation in MDA-MB-231 cell line treated with 1 and 5k. Evaluation of H3K27me3 following treatment for 72 h. Total H3 is shown as a loading control.
The western blotting assay of H3K27 status was performed as previously described.
In general terms: Immunoblotting shows a protein as a band on a membrane.

For another experiment, the target named is T4, SMYD3 (Homo sapiens, UniProt Q9H7B4).
T4 sequence (Q9H7B4 1-428): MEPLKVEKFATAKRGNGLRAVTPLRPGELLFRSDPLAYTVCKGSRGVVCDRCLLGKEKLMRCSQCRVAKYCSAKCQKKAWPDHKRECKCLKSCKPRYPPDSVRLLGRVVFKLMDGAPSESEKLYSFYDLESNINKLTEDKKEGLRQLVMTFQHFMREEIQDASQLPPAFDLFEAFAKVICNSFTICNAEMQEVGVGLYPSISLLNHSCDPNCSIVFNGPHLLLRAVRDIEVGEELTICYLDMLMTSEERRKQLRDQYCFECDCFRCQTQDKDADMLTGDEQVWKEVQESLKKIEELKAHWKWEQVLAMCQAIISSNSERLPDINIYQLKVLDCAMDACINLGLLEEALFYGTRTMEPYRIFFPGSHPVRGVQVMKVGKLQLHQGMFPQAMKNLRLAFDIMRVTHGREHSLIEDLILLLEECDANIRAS
In words: Enzyme selectivity assay, SMYD3. It is filed as biochemical. As to conditions: means of at least three measurements.

The next experiment deals with MDA-MB-231. Kind of experiment: MTT cell growth inhibition, MDA-MB-231. It is filed as cell-based. The settings on record: Homo sapiens, MDA-MB-231, 96 h, read-out: IC50 MDA-MB-231.

PRMT1, sequence (Q99873 whole entry, species assumed): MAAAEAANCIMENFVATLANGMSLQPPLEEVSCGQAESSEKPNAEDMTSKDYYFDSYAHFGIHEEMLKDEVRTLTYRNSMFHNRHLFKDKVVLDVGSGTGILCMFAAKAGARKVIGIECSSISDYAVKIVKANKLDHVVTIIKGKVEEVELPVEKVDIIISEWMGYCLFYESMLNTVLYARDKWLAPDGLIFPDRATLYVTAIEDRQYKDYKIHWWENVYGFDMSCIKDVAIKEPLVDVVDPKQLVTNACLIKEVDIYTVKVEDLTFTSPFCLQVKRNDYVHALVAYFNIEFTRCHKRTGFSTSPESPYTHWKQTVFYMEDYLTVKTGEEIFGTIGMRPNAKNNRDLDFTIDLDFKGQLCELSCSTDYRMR

The term IC50 denotes the concentration that gives 50% inhibition. For `COc1cccc2nc(N3CCCN(C)CC3)cc(NC3CCN(C)CC3)c12` [Compound 5k, 5-Methoxy-2-(4-methyl-1,4-diazepan-1-yl)-N-(1-methylpiperidin-4-yl)quinolin-4-amine], the 50% inhibitory concentration (IC50) on SETD8 was 40 ± 2.71 µM; at SUV39H1 it was 21.2 ± 0.28 µM; in the experiment on HCT15 (Homo sapiens, HCT-15, 96 h, read-out: IC50 HCT15, MTT, treatment 96 h), 5.6 µM; with HCT15 (read-out: IC50 HCT15, MTT, treatment 96 h), 7.6 ± 0.46 µM; against PRMT1, 28.8 ± 1.25 µM; on G9a it was 82.6 ± 2.23 µM. For the same compound, the concentration for half-maximal inhibition (IC50) on SETDB1 came to 27 ± 1.36 µM; at SMYD3 it was 35.4 ± 1.97 µM; in the experiment on MDA-MB-231 it was 2.45 ± 0.24 µM. Moreover, the H3K27me3 level result in experiment [1] is “decreased global H3K27me3 level in cells; also recorded: obviously down-regulated”.
